Literature values, collected in patent US20040053391A1, “Renal cell carcinoma-antigen G250-derived peptides that elicit both CD4+ and CD8+ T-cell responses” (Katholieke Universiteit Nijmegen, priority 2002, published 2004).

Tested on: CD8+CTL's
Conditions: HLA-A2.1; Vissers et al. 1999, WO 01/98363

## G250 amino acid sequence from 254 to 262: previously identified HLA-A2.1-restricted CTL epitope of G250, comprised within 249-268 (HLSTAFARV; UniProt Q16790 254-262, looked up, fragment)
  CTL epitope character: HLA-A2.1-restricted CTL epitope that is both naturally processed and immunogenic
